Read-outs that look alike come from different tables or passages of the source.
Key:
[1] = system: Hep-G2 (ATCC No. HB-8065) tumor cell line; test: Cell proliferation test (intracellular ATP, CellTiterGlo) on Hep-G2; type: cell-based; conditions: read-out: Activity in a cell proliferation test, expressed as TC50 value, Hep-G2
Procedure: (§1) A test which is based on determining the intracellular concentration of ATP is employed for detecting the inhibition of cell proliferation. It is possible to use known tumor cell lines such as Hep-G2 and Colo205. In this test, the ATP content of metabolically active cells serves, in a luciferase reaction, as a measure of the number of living cells.
(§2) The compounds of the formula (II)-(VI) were used in the test in a single dose of 0.3-40 μM and a dose dependency given as a TC50 value, with (IIA) and (IIB) in each case denoting a diastereomer of the compound of the formula (II): […]
(§3) The tumor cell lines Hep-G2 (ATCC No. HB-8065) and COLO 205 (ATCC No. CCL-222) were used for determining the cell proliferation. The cell lines were sown in cell culture medium at the rate of 1000 cells/well [Hep-G2] and, respectively, 3500 cells/well [Colo205] and incubated for 4 hours at 37° C. and 5% CO2.
Medium for Hep-G2: Dulbecco's modified Eagle's medium/Ham's F12 mix (Gibco); NEAA (10%; nonessential amino acids, Gibco), sodium pyruvate (1%, Gibco), L-glutamine (1%, Gibco), fetal calf serum (5%; PAA)].
(§4) After 4 hours, compounds (II), (III) and (IV) and bengamides E and F, dissolved in DMSO/cell culture medium, were added at various dilutions and the mixtures were incubated for 72 hours at 37° C. and 5% CO2. The intracellular content of ATP was determined using the test reagent CellTiterGlo (Promega).

[2] = system: COLO 205 (ATCC No. CCL-222) tumor cell line; test: Cell proliferation test (intracellular ATP, CellTiterGlo) on COLO 205; type: cell-based; conditions: read-out: Activity in a cell proliferation test, expressed as TC50 value, Colo 205
Procedure: as §1, §2, §3
Medium for COLO 205: RPMI 1640 (Gibco), L-glutamine (1%, Gibco), HEPES (1%, Gibco), fetal calf serum (10%, PAA).
as §4

[3] = system: cell proliferation; conditions: stops cell division at the G1/S restriction point and in the G2/M phase; cited from earlier work
[4] = system: eukaryotic cells, nematodes and bacteria; conditions: Adamczewski et al., J. Org. Chem. 1986; cited from earlier work
[5] = Colo 205, 72 hours incubation, ATP content, tested at 0.3-40 μM

Question: Which TC50 (50% inhibition of cell proliferation) ([1]; Hep-G2, 72 hours incubation, ATP content, tested at 0.3-40 μM) does the source give for `CO[C@@H](C(=O)N[C@H]1CCCCN(C)C1=O)[C@H](O)[C@@H](O)[C@H](O)/C=C/C(C)C` [Bengamide F] here?
Answer: The TC50 (50% inhibition of cell proliferation) was 27 µM.

Question: What about the CC50 [2, 5] of the same compound?
Answer: The CC50 was 33 µM.

Question: With `CO[C@@H](C(=O)N[C@H]1CCCCNC1=O)[C@H](O)[C@@H](O)[C@H](O)/C=C/C(C)C` [Bengamide E] as the compound, how does the TC50 (50% inhibition of cell proliferation) ([1]; Homo sapiens, HepG2, Hep-G2, 72 hours incubation, ATP content, tested at 0.3-40 μM) read?
Answer: Its TC50 (50% inhibition of cell proliferation) is 36 µM.

Question: And the CC50 [2, 5]?
Answer: Its CC50 is 46 µM.

Question: And the “Inhibition of cell proliferation” value [3]?
Answer: Its value is “inhibits cell proliferation”.

Question: With `CCC(C)/C=C/C(O)C(O)C(O)[C@@H](OC)C(=O)N[C@H]1CCCCNC1=O` (stereo partly shown) [Compound (II)] as the compound, how does the TC50 (50% inhibition of cell proliferation) ([1]; Homo sapiens, HepG2, 72 h) read?
Answer: The TC50 (50% inhibition of cell proliferation) was 16 µM.

Question: What about the CC50 ([2]; Homo sapiens, COLO 205, 72 h) of the same compound?
Answer: The CC50 was 27 µM.

Question: With `CCCCCCCCCCCCCC(=O)O[C@H]1CC[C@H](NC(=O)[C@H](OC)[C@H](O)[C@@H](O)[C@H](O)/C=C/C(C)C)C(=O)N(C)C1` [Bengamide B] as the compound, how does the “Biotoxicity to eukaryotic cells, nematodes and bacteria” value [4] read?
Answer: Its value is “biotoxic”.

Question: For `CCCCCCCCCCCCCC(=O)O[C@H]1CC[C@H](NC(=O)[C@H](OC)[C@H](O)[C@@H](O)[C@H](O)/C=C/C(C)C)C(=O)NC1` [Bengamide A], which “Biotoxicity to eukaryotic cells, nematodes and bacteria” value [4] is on record?
Answer: Its value is “biotoxic”.

Question: Which results are given for `CCC(C)/C=C/C(O)C(O)C(O)[C@@H](OC)C(=O)N[C@H]1CCC(O)CNC1=O` (stereo partly shown) [(IV)]?
Answer: TC50 (50% inhibition of cell proliferation) ([1]; Homo sapiens, HepG2, 72 h): > 40 µM; CC50 [2, 5]: 42 µM

Question: With `CCC(C)/C=C/C(O)C(O)C(O)[C@@H](OC)C(=O)N[C@H]1CCCCN(C)C1=O` (stereo partly shown) [(III)] as the compound, how does the TC50 (50% inhibition of cell proliferation) ([1]; Homo sapiens, HepG2, 72 h) read?
Answer: Its TC50 (50% inhibition of cell proliferation) is 9 µM.

Question: And the CC50 ([2]; Homo sapiens, COLO 205, 72 h)?
Answer: The CC50 was 15 µM.

— patent US7638320B2, “Bengamide derivatives, process for preparing them, and their use” (sanofi-aventis Deutschland GmbH, priority 2003, dated 2009)
